What was measured:
goosegrass = assay: Test E preemergence; type: in vivo, Eleusine indica; settings: scale 0 to 100
From the text: (§1) Seeds of plant species selected from corn (Zea mays), soybean (Glycine max), lambsquarters (Chenopodium album), poinsettia, wild (wild poinsettia, Euphorbia heterophylla), pigweed, palmer (palmer pigweed, Amaranthus palmeri), waterhemp (common waterhemp, Amaranthus rudis), surinam grass (Brachiaria decumbens), crabgrass, large (large crabgrass, Digitaria sanguinalis), crabgrass, Brazilian (Brazilian crabgrass, Digitaria horizontalis), panicum, fall (fall panicum, Panicum dichotomiflorum), foxtail, giant (giant foxtail, Setaria faberii), foxtail, green (green foxtail, Setaria viridis), goosegrass (Eleusine indica), johnsongrass (Sorghum halepense), ragweed (common ragweed, Ambrosia elatior), barnyardgrass (Echinochloa crus-galli), sandbur (southern sandbur, Cenchrus echinatus), arrowleaf sida (Sida rhombifolia), ryegrass, Italian (Italian ryegrass, Lolium multiflorum), dayflower, VA (Virginia dayflower, Commelina virginica), field bindweed (Convolvulus arvensis), cocklebur (common cocklebur, Xanthium strumarium), morningglory (Ipomoea coccinea), nightshade (eastern black nightshade, Solanum ptycanthum), kochia (Kochia scoparia), nutsedge, yellow (yellow nutsedge, Cyperus esculentus), smartweed (ladysthumb smartweed, Polygonum persicaria), velvetleaf (Abutilon theophrasti), horseweed (Conyza canadensis), and beggarticks (hairy beggarticks, Bidens pilosa), were planted into a silt loam soil and treated preemergence with test chemicals formulated in a non-phytotoxic solvent mixture which included a surfactant.
(§2) At the same time, plants from these crop and weed species and also waterhemp_RES1, (ALS & Triazine resistant common waterhemp, Amaranthus rudis), and waterhemp_RES2, (ALS & HPPD resistant common waterhemp, Amaranthus rudis) were planted in pots containing Sunshine Redi-Earth® planting medium comprising spaghnum peat moss, vermiculite, starter nutrients and dolomitic limestone were treated with postemergence applications of test chemicals formulated in the same manner. Plants ranged in height from 2 to 18 cm for postemergence treatments (1- to 4-leaf stage). Treated plants and controls were maintained in a greenhouse for 14 to 21 d, after which time all species were compared to controls and visually evaluated. Plant response ratings, summarized in Table E, are based on a scale of 0 to 100 where 0 is no effect and 100 is complete control. A dash (-) response means no test result.

surinam grass = assay: Test E preemergence; type: in vivo, Brachiaria decumbens; settings: scale 0 to 100
From the text: as §1, §2

foxtail, giant = assay: Test E preemergence; type: in vivo, Setaria faberii; settings: scale 0 to 100
From the text: as §1, §2

beggarticks = assay: Test E preemergence; type: in vivo, Bidens pilosa; settings: scale 0 to 100
From the text: as §1, §2

foxtail, green = assay: Test E preemergence; type: in vivo, Setaria viridis; settings: scale 0 to 100
From the text: as §1, §2

barnyardgrass [1] = assay: Test E preemergence; type: in vivo, Echinochloa crus-galli; settings: scale 0 to 100
From the text: as §1, §2

barnyardgrass [2] = assay: Test E postemergence; type: in vivo, Echinochloa crus-galli; settings: scale 0 to 100
From the text: as §1, §2

morningglory = assay: Test E preemergence; type: in vivo, Ipomoea coccinea; settings: scale 0 to 100
From the text: as §1, §2

ryegrass, Italian [3] = assay: Test E preemergence; type: in vivo, Lolium multiflorum; settings: scale 0 to 100
From the text: as §1, §2

soybean = assay: Test E preemergence; type: in vivo, Glycine max; settings: scale 0 to 100
From the text: as §1, §2

lambsquarters = assay: Test E preemergence; type: in vivo, Chenopodium album; settings: scale 0 to 100
From the text: as §1, §2

panicum, fall = assay: Test E preemergence; type: in vivo, Panicum dichotomiflorum; settings: scale 0 to 100
From the text: as §1, §2

nightshade = assay: Test E preemergence; type: in vivo, Solanum ptycanthum; settings: scale 0 to 100
From the text: as §1, §2

field bindweed = assay: Test E postemergence; type: in vivo, Convolvulus arvensis; settings: scale 0 to 100
From the text: as §1, §2

velvetleaf = assay: Test E preemergence; type: in vivo, Abutilon theophrasti; settings: scale 0 to 100
From the text: as §1, §2

crabgrass, Brazilian = assay: Test E preemergence; type: in vivo, Digitaria horizontalis; settings: Brazil, scale 0 to 100
From the text: as §1, §2

sandbur = assay: Test E preemergence; type: in vivo, Cenchrus echinatus; settings: scale 0 to 100
From the text: as §1, §2

corn = assay: Test E postemergence; type: in vivo, Zea mays; settings: scale 0 to 100
From the text: as §1, §2

ryegrass, Italian [4] = assay: Test E postemergence; type: in vivo, Lolium multiflorum; settings: scale 0 to 100
From the text: as §1, §2

With CCOc1nc(-c2ccccc2)nn1Cc1ccnc(C(F)(F)F)c1 [Compound 27] the Plant response rating (goosegrass; 16 g ai/ha) was 80, the Plant response rating (goosegrass; 31 g ai/ha) was 98 and the Plant response rating (goosegrass; 62 g ai/ha) was 95. For the same molecule, the Plant response rating (goosegrass; 125 g ai/ha) was 100, the Plant response rating (surinam grass; 16 g ai/ha) was 0 and the Plant response rating (surinam grass; 31 g ai/ha) was 0. It also gave a Plant response rating (surinam grass; 62 g ai/ha) of 10, a Plant response rating (surinam grass; 125 g ai/ha) of 15 and a Plant response rating (foxtail, giant; 16 g ai/ha) of 75. The Plant response rating (foxtail, giant; 31 g ai/ha) was 95, the Plant response rating (foxtail, giant; 62 g ai/ha) was 100 and the Plant response rating (foxtail, giant; 125 g ai/ha) was 100. For the same molecule, the Plant response rating (beggarticks; 16 g ai/ha) was 0, the Plant response rating (beggarticks; 31 g ai/ha) was 0 and the Plant response rating (beggarticks; 62 g ai/ha) was 0. The Plant response rating (beggarticks; 125 g ai/ha) was 0, the Plant response rating (foxtail, green; 16 g ai/ha) was 75 and the Plant response rating (foxtail, green; 31 g ai/ha) was 100. It also gave a Plant response rating (foxtail, green; 62 g ai/ha) of 100, a Plant response rating (foxtail, green; 125 g ai/ha) of 100 and a Plant response rating (barnyardgrass [1]; 16 g ai/ha) of 10. For the same molecule, the Plant response rating (barnyardgrass [1]; 31 g ai/ha) was 25, the Plant response rating (barnyardgrass [1]; 62 g ai/ha) was 90 and the Plant response rating (barnyardgrass [1]; 125 g ai/ha) was 95. The Plant response rating (barnyardgrass [2]; 16 g ai/ha) was 15, the Plant response rating (barnyardgrass [2]; 31 g ai/ha) was 20 and the Plant response rating (barnyardgrass [2]; 62 g ai/ha) was 30. For the same molecule, the Plant response rating (barnyardgrass [2]; 125 g ai/ha) was 50, the Plant response rating (morningglory; 16 g ai/ha) was 15 and the Plant response rating (morningglory; 31 g ai/ha) was 25. The Plant response rating (morningglory; 62 g ai/ha) was 35, the Plant response rating (morningglory; 125 g ai/ha) was 35 and the Plant response rating (ryegrass, Italian [3]; 16 g ai/ha) was 0. For the same molecule, the Plant response rating (ryegrass, Italian [3]; 31 g ai/ha) was 20, the Plant response rating (ryegrass, Italian [3]; 62 g ai/ha) was 60 and the Plant response rating (ryegrass, Italian [3]; 125 g ai/ha) was 95. It also gave a Plant response rating (soybean; 16 g ai/ha) of 0, a Plant response rating (soybean; 31 g ai/ha) of 0 and a Plant response rating (soybean; 62 g ai/ha) of 0. It also gave a Plant response rating (soybean; 125 g ai/ha) of 15, a Plant response rating (lambsquarters; 16 g ai/ha) of 80 and a Plant response rating (lambsquarters; 31 g ai/ha) of 100. The Plant response rating (lambsquarters; 62 g ai/ha) was 100, the Plant response rating (lambsquarters; 125 g ai/ha) was 100 and the Plant response rating (panicum, fall; 16 g ai/ha) was 65. It also gave a Plant response rating (panicum, fall; 31 g ai/ha) of 100, a Plant response rating (panicum, fall; 62 g ai/ha) of 100 and a Plant response rating (panicum, fall; 125 g ai/ha) of 100. For the same molecule, the Plant response rating (nightshade; 16 g ai/ha) was 0, the Plant response rating (nightshade; 31 g ai/ha) was 50 and the Plant response rating (nightshade; 62 g ai/ha) was 98. For the same molecule, the Plant response rating (nightshade; 125 g ai/ha) was 100, the Plant response rating (field bindweed; 16 g ai/ha) was 50 and the Plant response rating (field bindweed; 31 g ai/ha) was 60. For the same molecule, the Plant response rating (field bindweed; 62 g ai/ha) was 70, the Plant response rating (field bindweed; 125 g ai/ha) was 80 and the Plant response rating (velvetleaf; 16 g ai/ha) was 35. The Plant response rating (velvetleaf; 31 g ai/ha) was 50, the Plant response rating (velvetleaf; 62 g ai/ha) was 50 and the Plant response rating (velvetleaf; 125 g ai/ha) was 95. It also gave a Plant response rating (crabgrass, Brazilian; 16 g ai/ha) of 90, a Plant response rating (crabgrass, Brazilian; 31 g ai/ha) of 100 and a Plant response rating (crabgrass, Brazilian; 62 g ai/ha) of 100. It also gave a Plant response rating (crabgrass, Brazilian; 125 g ai/ha) of 100, a Plant response rating (sandbur; 16 g ai/ha) of 35 and a Plant response rating (sandbur; 31 g ai/ha) of 35. For the same molecule, the Plant response rating (sandbur; 62 g ai/ha) was 75, the Plant response rating (sandbur; 125 g ai/ha) was 98 and the Plant response rating (corn; 16 g ai/ha) was 10. It also gave a Plant response rating (corn; 31 g ai/ha) of 15, a Plant response rating (corn; 62 g ai/ha) of 20 and a Plant response rating (corn; 125 g ai/ha) of 25. For the same molecule, the Plant response rating (ryegrass, Italian [4]; 16 g ai/ha) was 20, the Plant response rating (ryegrass, Italian [4]; 31 g ai/ha) was 30 and the Plant response rating (ryegrass, Italian [4]; 62 g ai/ha) was 30. The Plant response rating (ryegrass, Italian [4]; 125 g ai/ha) was 40.
